Measured values taken from patent US5710174A, “Factor XIIIA inhibitor” (Zymo Genetics, Inc., priority 1995, dated 1998).

Tests used:
[1] = target: T1, FXIIIa (Homo sapiens, UniProt P00488); test: Primary FXIIIa screening assay (cross-linking of biotinylated fibrinogen and immobilized fibronectin); assay type: biochemical
T1 sequence (P00488 39-732 limits assumed): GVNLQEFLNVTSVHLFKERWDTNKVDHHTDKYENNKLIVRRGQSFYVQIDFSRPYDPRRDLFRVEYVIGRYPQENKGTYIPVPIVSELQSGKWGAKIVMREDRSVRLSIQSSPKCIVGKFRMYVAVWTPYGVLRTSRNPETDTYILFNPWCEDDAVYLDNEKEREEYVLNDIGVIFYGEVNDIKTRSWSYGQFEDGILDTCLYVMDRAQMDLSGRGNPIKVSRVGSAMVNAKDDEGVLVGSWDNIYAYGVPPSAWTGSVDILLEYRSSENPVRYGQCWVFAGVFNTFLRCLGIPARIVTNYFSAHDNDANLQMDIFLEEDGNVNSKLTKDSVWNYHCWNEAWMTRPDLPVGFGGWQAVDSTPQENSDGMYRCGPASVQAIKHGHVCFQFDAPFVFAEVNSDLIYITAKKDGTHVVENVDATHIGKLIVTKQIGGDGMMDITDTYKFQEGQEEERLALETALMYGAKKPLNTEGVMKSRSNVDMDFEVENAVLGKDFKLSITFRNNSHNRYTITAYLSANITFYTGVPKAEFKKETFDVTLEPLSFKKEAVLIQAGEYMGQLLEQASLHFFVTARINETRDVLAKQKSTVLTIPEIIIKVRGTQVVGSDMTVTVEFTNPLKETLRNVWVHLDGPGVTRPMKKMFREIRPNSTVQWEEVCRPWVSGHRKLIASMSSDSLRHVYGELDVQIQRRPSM
Description: The primary FXIIIa screening assay used a 96-well high throughput assay format. This assay assesses test sample inhibition of FXIIIa catalyzed cross-linking of biotinylated fibrinogen and immobilized fibronectin.
Test samples (possibly containing FXIIIa inhibitors) were added to 96-well plates coated with fibronectin, followed by the addition of FXIIIa, as described in the primary FXIIIa screening assay, below. Biotinylated fibrinogen was added to the wells, and streptavidin-alkaline phosphatase was used to detect biotinylated fibrinogen that had been cross-linked to fibronectin.
Purified fibronectin was diluted to 1 μg/ml in 0.1M Na2 CO3, pH 9.7, and added to control and test assay wells of 96-well plates at 100 μl/well. All wells were incubated overnight at 4° C.
After incubation, the plate wells were washed twice with 200 μl/well of wash buffer per wash to remove all fibronectin not bound to the wells. The wash buffer contained 0.135M NaCl, 2.7 mM KCl, 25 mM Tris at about pH 7.4, and 0.1% Tween 20® (Sigma Chemical Co., St. Louis, Mo.; polyoxyethylenesorbitan monolaurate). The plate wells were then blocked with 200 μl/well blocking buffer and incubated for 1-2 h at 37° C. The blocking buffer contained 0.135M NaCl, 2.7 mM KCl, 25 mM Tris at about pH 7.4, 0.1% Tween 20®, and 0.5% BSA (bovine serum albumin, Sigma fraction V; Sigma). After incubation, the plates wells were again washed with 200 μl/well of wash buffer to remove excess blocking buffer.
Briefly, fibrinogen was dialyzed against 0.1M NaHCO3, pH 8.5 (coupling buffer) at a concentration of 1 mg/ml. BNHS was dissolved in dimethylformamide at a concentration of 1.7 mg/ml, and added to fibrinogen in coupling buffer at a ratio of 30 μl BNHS to 1 ml fibrinogen. The mixture was incubated with rocking for 4 h at room temperature, dialyzed against PBS, and stored in aliquots at -80° C.
Biotinylated fibrinogen (40 μl of 20 μg/ml solution) was added to each plate well. Except in control wells (which received 10 μl of 10% DMSO alone), 10 μl of each of the 11,198 crude extracts in 10% DMSO were added to duplicate wells after the addition of biotinylated fibrinogen, resulting in a 1% final assay concentration of DMSO.
FXIIIa (recombinant human FXIIIa2 (ZymoGenetics), as described in European Patent No. 0 268 772, granted Apr. 26, 1995, and incorporated herein by reference) was diluted to 100 μg/ml in a solution of 50 mM Tris, 5 mM CaCl2 at pH 7.4 containing 1 unit/ml thrombin (bovine; Enzyme Research Labs) and incubated for 20 min at 37° C. FXIIIa then was diluted to 1 μg/ml in a cross-linking buffer consisting of the blocking buffer described above plus 20 mM CaCl2 and 75 ng/ml D-phenylalanyl-L-prolyl-L-arginine chloromethyl ketone (PPACK; Calbiochem, La Jolla, Calif.). Fifty microliters of FXIIIa in cross-linking buffer was added to each test and control well. All wells then were incubated for about 10 min at 37° C.
After incubation, the wells were washed twice with 200 μl/well of wash buffer to remove all biotinylated fibrinogen that was not cross-linked to fibronectin.

[2] = target: T2, tissue transglutaminase (tTG) (Cavia cutleri, UniProt P08587); test: tTG screening assay; assay type: biochemical
T2 construct: purchased Sigma
T2 sequence (P08587 1-690): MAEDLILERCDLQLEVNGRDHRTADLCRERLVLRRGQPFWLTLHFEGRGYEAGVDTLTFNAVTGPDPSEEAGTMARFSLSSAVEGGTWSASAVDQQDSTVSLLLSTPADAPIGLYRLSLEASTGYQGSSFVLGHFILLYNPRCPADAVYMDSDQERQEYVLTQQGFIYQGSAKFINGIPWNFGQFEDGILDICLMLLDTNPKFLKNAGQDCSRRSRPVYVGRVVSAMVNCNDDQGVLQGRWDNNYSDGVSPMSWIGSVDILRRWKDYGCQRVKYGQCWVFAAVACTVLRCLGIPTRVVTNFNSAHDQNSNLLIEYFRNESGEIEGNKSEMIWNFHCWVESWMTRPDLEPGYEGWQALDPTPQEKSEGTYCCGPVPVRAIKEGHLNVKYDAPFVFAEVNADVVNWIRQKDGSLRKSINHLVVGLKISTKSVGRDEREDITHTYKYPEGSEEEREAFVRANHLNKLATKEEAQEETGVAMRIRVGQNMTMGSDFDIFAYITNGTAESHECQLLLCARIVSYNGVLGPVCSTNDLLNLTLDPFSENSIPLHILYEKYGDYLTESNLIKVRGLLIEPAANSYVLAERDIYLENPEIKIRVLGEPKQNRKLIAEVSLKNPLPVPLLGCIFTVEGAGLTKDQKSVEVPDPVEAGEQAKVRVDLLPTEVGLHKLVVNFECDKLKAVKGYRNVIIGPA
From the text: Because FXIII is a member of the tissue transglutaminase (tTG) family, all potential FXIIIa inhibitors identified in the primary FXIIIa screening assay were further screened for tTG (non-FXIII-specific) inhibitory activity. The tTG screening assay was identical to the primary FXIIIa screening assay, except that tTG (Sigma) was used instead of FXIIIa and no thrombin or PPACK was used.
The determination of IC50 values was done the same as in the primary FXIIIa screening assay, except that purified compounds were used at varying concentrations (instead of crude culture extracts). The IC50 values allow one to make comparisons of one compound to another.

[3] = tested on: plasma clots; test: Plasma clot lysis assay; set-up: species or system human; conditions: 100 μM
Description: For this assay, 50 μl of one of a series of concentrations of iodoacetic acid, cerulenin, or ZG-1400a was added to 0.5 ml human citrated plasma (prepared from one blood donor) in 5 ml polypropylene tubes. The ZG-1400a and iodoacetic acid were individually prepared in 10% DMSO and tested using half-log dilutions, starting at a final assay concentration of 100 μM and diluting to 10 μM. Cerulenin was prepared in 10% ethanol and tested using half-log dilutions, starting at a final assay concentration of 100 μM and diluting to 10 μM.
Approximately 10^6 cpm ^125 I-fibrinogen (Amersham), 50 mM CaCl2 (20 mM above citrate concentration) and 5 units thrombin (bovine, Enzyme Research Labs) were added to each test and control tube. The tubes were incubated while rocking for 20 h at 37° C. Plasma clots formed in the tubes were washed three times with about 1 ml phosphate buffered saline (PBS). The plasma clots in each tube were counted after the PBS washes.
Approximately 2 ml of 50 mM Tris, pH 7.4, containing 50 mM NaCl, 28 μg plasminogen (human, Calbiochem), and 280 ng urokinase (human, Calbiochem) were added to the clots in test and control tubes. At 1, 2, and 4 h intervals, 25 μl aliquots of the samples were removed from each tube and counted.
The values shown in Table 3 represent the amount of lysis after plasma clots were formed for about 20 h and exposed to plasminogen and urokinase for about 4 h.

[4] = target: T3, papain (Carica papaya, UniProt P00784); test: Papain inhibition assay; assay type: biochemical
T3 construct: purchased Boehringer Mannheim
T3 sequence (P00784 134-345): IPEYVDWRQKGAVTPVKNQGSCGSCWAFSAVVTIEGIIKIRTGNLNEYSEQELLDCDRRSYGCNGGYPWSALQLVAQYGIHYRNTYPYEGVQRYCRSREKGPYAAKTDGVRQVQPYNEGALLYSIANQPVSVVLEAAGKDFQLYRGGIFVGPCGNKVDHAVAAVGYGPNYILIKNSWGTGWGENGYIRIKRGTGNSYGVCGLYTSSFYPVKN
Description: For the papain inhibition assay, a buffer containing 0.1M NaPO4 and 2.5 mM EDTA at about pH 7.0 was used. An Azocoll™ solution was prepared by adding 5 mg Azocoll™ (Calbiochem; an insoluble, powdered cowhide to which a bright red dye is attached (azo-dye-bound collagen)) to the buffer while stirring. The Azocoll was prewarmed to about 37° C. 10 μl of 0.1M L-cysteine, 10 μl of 50 μg/ml papain (Boehringer Mannheim), 0.5 ml of Azocoll solution, and 50 μl of one of a series of concentrations of ZG-1400a, iodoacetamide, iodoacetic acid, cerulenin, or 50 μl of the DMSO or ethanol negative controls were added to duplicate 13×75 mm glass tubes. The ZG-1400a, iodoacetamide, and iodoacetic acid were individually prepared in 10% DMSO and tested using half-log dilutions, starting at a final assay concentration of 100 μM and diluting to 10 nM. Cerulenin was prepared in 10% ethanol and tested using half-log dilutions, starting at a final assay concentration of 100 μM and diluting to 10 nM. A negative (no inhibition) control for ZG-1400a, iodoacetamide and iodoacetic acid was 50 μl of 10% DMSO to give a final assay concentration of 1% DMSO in each control tube. A negative control for cerulenin was 50 μl of 10% ethanol to give a final assay concentration of 1% ethanol in each control tube. The test and control tubes then were incubated for 30 min at 37° C. in an agitated water bath.
After incubation, all of the tubes were centrifuged at 2000 RPM for 5 min. The supernatant was removed and its absorbance was read at 520 nm on a Beckman DU640 spectrophotometer to determine the amount of papain inhibition.

[5] = tested on: clot formation; conditions: background; cited from earlier work

Structure (SMILES)	IC50 [1]	IC50 [2]	susceptibility of plasma clots to lysis by plasminogen and urokinase [3]	% Plasma Clot lysis ([3]; clots formed about 20 h, plasminogen and urokinase about 4 h)	IC50 [4]	Papain inhibition (result in words, IC50 table) ([4]; 100 μM to 10 nM, 30 min at 37° C.)	internal bleeding [5]	toxicity [5]
O=C(O)CI [Iodoacetic Acid, iodoacetic acid]	350 µM	32 µM	significantly more susceptible to lysis	23%	0.7 µM	did cause inhibition	–	–
O=c1oc2ccccc2c(O)c1Cc1c(O)c2ccccc2oc1=O [dicoumarin]	–	–	–	–	–	–	more prone to internal bleeding	associated with toxicity
